In BindingDB's records for doi:10.1016/j.ejphar.2004.01.015 (Abbott Laboratories, 2004):
pKi: −log10 of the molar value. Values joined by “and” are separate entries in the source; they are usually repeats but may differ in a detail not shown here. Equal values may be shown once.

What was measured:
Histamine H1 receptor = Histamine H1 receptor (Homo sapiens, UniProt P35367)
Histamine H2 receptor = Histamine H2 receptor (Homo sapiens, UniProt P25021)
Hrh3 protein = Hrh3 protein (Rattus norvegicus, UniProt Q5PPG3)
Sequence of Hrh3 protein (Q5PPG3 whole entry): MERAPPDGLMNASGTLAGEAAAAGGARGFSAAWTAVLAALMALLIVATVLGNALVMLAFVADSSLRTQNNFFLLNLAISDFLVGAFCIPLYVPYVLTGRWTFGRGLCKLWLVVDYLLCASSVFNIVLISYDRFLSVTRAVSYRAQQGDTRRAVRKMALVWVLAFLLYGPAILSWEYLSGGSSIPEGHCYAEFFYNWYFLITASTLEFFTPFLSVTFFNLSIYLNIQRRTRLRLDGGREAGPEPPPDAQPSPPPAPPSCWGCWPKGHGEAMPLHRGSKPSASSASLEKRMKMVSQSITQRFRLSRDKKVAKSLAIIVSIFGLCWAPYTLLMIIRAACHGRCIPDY

Histamine H3 receptor = Histamine H3 receptor (Homo sapiens, UniProt Q9Y5N1)
Sequence of Histamine H3 receptor (Q9Y5N1 whole entry): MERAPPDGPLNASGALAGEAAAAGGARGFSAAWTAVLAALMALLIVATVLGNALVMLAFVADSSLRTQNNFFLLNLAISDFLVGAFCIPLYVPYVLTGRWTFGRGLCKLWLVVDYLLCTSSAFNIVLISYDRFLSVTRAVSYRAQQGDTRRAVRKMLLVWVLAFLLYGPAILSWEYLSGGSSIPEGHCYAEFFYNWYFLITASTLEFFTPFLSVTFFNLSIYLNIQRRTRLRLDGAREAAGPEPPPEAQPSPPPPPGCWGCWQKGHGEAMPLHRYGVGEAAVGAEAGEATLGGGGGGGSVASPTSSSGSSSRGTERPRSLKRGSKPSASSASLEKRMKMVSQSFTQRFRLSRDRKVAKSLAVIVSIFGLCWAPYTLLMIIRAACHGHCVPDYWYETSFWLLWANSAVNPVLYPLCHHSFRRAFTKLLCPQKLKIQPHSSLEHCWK

Histamine H4 receptor = Histamine H4 receptor (Homo sapiens, UniProt Q9H3N8)

Sequence of Histamine H2 receptor (P25021 whole entry): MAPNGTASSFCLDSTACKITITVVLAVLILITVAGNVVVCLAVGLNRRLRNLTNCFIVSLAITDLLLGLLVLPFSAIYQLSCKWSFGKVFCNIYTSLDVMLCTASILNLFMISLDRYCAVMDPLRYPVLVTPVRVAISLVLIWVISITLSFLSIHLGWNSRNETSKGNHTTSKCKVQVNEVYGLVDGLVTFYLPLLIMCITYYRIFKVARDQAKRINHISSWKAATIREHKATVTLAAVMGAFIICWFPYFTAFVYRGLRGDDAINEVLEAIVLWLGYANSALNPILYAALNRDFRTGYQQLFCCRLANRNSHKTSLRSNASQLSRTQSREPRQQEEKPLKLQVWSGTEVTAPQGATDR
Sequence of Histamine H1 receptor (P35367 whole entry): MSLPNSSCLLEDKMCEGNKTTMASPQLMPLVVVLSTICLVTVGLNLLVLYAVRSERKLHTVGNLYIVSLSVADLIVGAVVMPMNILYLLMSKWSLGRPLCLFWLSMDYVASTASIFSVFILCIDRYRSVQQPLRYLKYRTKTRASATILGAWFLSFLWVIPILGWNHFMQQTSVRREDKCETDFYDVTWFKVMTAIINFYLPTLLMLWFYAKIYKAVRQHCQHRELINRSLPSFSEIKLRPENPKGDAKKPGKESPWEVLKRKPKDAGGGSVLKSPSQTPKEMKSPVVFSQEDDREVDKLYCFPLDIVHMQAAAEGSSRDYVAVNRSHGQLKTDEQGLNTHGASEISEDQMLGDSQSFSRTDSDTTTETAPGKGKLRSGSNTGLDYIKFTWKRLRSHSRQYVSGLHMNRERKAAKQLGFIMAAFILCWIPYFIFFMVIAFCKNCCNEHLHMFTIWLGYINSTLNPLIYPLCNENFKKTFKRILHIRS

SMILES	pKi (Histamine H1 receptor)	pKi (Histamine H2 receptor)	pKi (Hrh3 protein)	pKi (Histamine H3 receptor)	pKi (Histamine H4 receptor)
S=C(NC1CCCCC1)N1CCC(c2cnc[nH]2)CC1	< 5.00	< 5.00	8.12 and 8.49		
NCCc1c[nH]cn1 [[3H]histamine]			8.31 and 8.58		

Continued, values first:

pKi (Histamine H1 receptor)	pKi (Histamine H2 receptor)	pKi (Hrh3 protein)	pKi (Histamine H3 receptor)	pKi (Histamine H4 receptor)	SMILES
	< 5.00	7.66 and 8.20	7.64 and 8.49	< 5.00	CN(C)[C@@H]1CCN(CCCOc2ccc(-c3ccc(C#N)cc3)cc2)C1 [A-331440]
< 5.00	< 5.00	9.18 and 9.37			O=C(c1ccc(OCCCc2cnc[nH]2)cc1)C1CC1
5.59	5.14	7.59	6.30 and 6.87	6.13	O=C(CCCCC1CCCCC1)N1CCC(c2c[nH]cn2)CC1
